This is an account of results in patent US11091476B2, “Protein kinase inhibitors, preparation method and medical use thereof” (Gan & Lee Pharmaceuticals, priority 2015, dated 2021).

Entries after “also recorded” stand apart in the source; their conditions may differ. Read-outs that look alike come from different tables or passages of the source.

In one data set the target is CDK4/CyclinE1 (Homo sapiens, UniProt P11802). To be noted: read-out: CDK4/CyclinE1 IC50. As to the method: Measurement of CDK kinase inhibitory activity of the compounds of this disclosure.
In vitro inhibitory effect of the compounds of the disclosure on CDK (CDK1, CDK4 and CDK6) kinase activity was tested by the following method.
1.1 Instrument and Kit Information
1.2 Experimental Preparation • 1.2.1 Preparation of Kinase Reaction Buffer I: The 5×Reaction Buffer A (Promega; V307A-C) provided in the kit was mixed and diluted with MILLI-Q® H2O and 0.1 M DTT (dithiothreitol) to give 4× kinase buffer, and then MILLI-Q® H2O was further added to finally formulate the solution into 1× Kinase buffer.
The final concentration was 50 μM. • b. 40 μl of kinase reaction buffer II was added into B2 to B10 of a 96-well plate, and 50 μl of the above solution was added into B1; • c. […]
1.3 Experimental process: • 1.3.1: 2 μl of compound solutions of various concentrations were taken, added to a 384-well plate, and centrifuged 3 minutes; • 1.3.2: 4 μl of kinase solution was added to each well, centrifuged at 5000 rpm and 18° C. for 10 minutes, and shaken on a plate shaker for 10 minutes; • 1.3.3: 4 μl of mixed solution of substrate and ATP was added to each well, centrifuged at 5000 rpm and 18° C. for 10 minutes, and shaken on a plate shaker at 37° C. for 90 minutes; • 1.3.4: The 384-well plate was taken out, and allowed to stand to room temperature; • 1.3.5: 10 μl of ADP-GLO™ reagent was added to each well, centrifuged at 5000 rpm and 18° C. for 18 minutes, and shaken on a plate shaker at 25° C. for 40 minutes, and then the reaction was stopped; • 1.3.6: 20 μl of kinase detection reagent was added to each well, centrifuged at 5000 rpm and 18° C. for 10 minutes, and shaken on a plate shaker at 25° C. for 30 minutes; and • 1.3.7: M1000pro MICROPLATE READER was used to read […] values.
The inhibition rate of each compound at each concentration point was calculated by the formula as follows and curve fitting was performed by GraphPad Prism 5 software to obtain the IC50 value.

The nature of data set [1]: Plasma and brain exposure levels after single intragastric administration. It is filed as in vivo, CD-1 mice. To be noted: for Cmax: read-out: Blood concentration Cmax, Plasma. As to the method:
The CD-1 mice were used as the test animals, the concentrations of the drugs in the plasma and brain tissue of mice at different time points after single intragastric administration of the representative compound of this disclosure were determined by LC/MS/MS, so as to study the plasma level and brain exposure level of the compounds of the disclosure in mice.
For each test drug, 12 male CD-1 mice were administered intragastrically at a dose of 10 mg/kg and an administration volume of 10 ml/kg after fasting overnight.
The whole brain was collected, mashed and frozen in liquid nitrogen. Ten hours after administration, the remaining animals were sacrificed, whole blood was collected by cardiac puncture, and the whole brain was collected, mashed and frozen in liquid nitrogen.
The whole brain was collected, mashed and frozen in liquid nitrogen. 48 hours after administration, the remaining animals were sacrificed, whole blood was collected by cardiac puncture, and the whole brain was collected, mashed and frozen in liquid nitrogen.
Treatment of the whole blood sample: The collected whole blood was anticoagulated with EDTA-K2, and centrifuged, the supernatant was removed, and the residue was frozen and stored at −20° C. until the sample was analyzed by LC-MS/MS.
Brain homogenate sampling: Brain homogenate were dispersed with PBS (pH=7.4): MeOH (v:v, 2:1) solution in a volume 5 times of the volume of the brain homogenate. 100 μl of solution was taken, and the protein therein was precipitated with 600 μl IS. The mixture was centrifuged at 13,000 rpm and 20-25° C. for 15 minutes. 50 μL of the supernatant was mixed with 150 μL of water containing 0.3% FA and centrifuged at 4° C. 5 μL of the sample was analyzed by LC-MS/MS.
The linear range of sample analysis was 1-2000 ng/ml, and the lowest quantification limit was 1 ng/ml.

Where [2] appears, read: male, mouse, po, CD-1 mice, intragastric 10 mg/kg, brain, read-out: Area under curve AUC0-last, Brain.
Where [3] appears, read: male, mouse, po, CD-1 mice, intragastric 10 mg/kg, brain, read-out: The time for blood concentration reaching peak Tmax, Brain.
[4] abbreviates: male, mouse, po, CD-1 mice, intragastric 10 mg/kg, plasma, read-out: Area under curve AUC0-last, Plasma.
[5] abbreviates: male, mouse, po, CD-1 mice, intragastric 10 mg/kg, plasma.
Where [6] appears, read: male, mouse, po, CD-1 mice, intragastric 10 mg/kg, plasma, read-out: The time for blood concentration reaching peak Tmax, Plasma.

CDK4/CyclinE1, sequence (P11802 2-303 limits assumed): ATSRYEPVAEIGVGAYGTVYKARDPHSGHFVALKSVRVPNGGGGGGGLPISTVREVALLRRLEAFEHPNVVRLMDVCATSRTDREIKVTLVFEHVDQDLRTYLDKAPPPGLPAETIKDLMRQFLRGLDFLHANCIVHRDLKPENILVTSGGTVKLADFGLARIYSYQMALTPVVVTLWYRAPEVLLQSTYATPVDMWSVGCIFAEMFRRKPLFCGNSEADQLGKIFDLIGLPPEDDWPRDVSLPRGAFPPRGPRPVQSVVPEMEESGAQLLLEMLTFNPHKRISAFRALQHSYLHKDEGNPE

On to `CCN1CCC(c2ccc(Nc3ncc(F)c(-c4cc(F)c5c(c4)C4(CCCC4)C(C)=N5)n3)nc2)CC1` [Example 12, N-(5-(1-ethylpiperidin-4-yl)pyridin-2-yl)-5-fluoro-4-(7′-fluoro-2′-methylspiro [cyclopentane-1,3′-indol]-5′-yl)pyrimidine-2-amino], for which, at CDK4/CyclinE1, the IC50 came out at 4.46 nM.

Turning to `CC1=Nc2c(F)cc(-c3nc(Nc4ccc(C5CCN(C)CC5)cn4)ncc3F)cc2C12CCCC2` [Example 17, 5-Fluoro-4-(7′-fluoro-2′-methylspiro[cyclopentane-1,3′-indol]-5′-yl)-N-(5-(1-methylpiperidin-4-yl)pyridin-2-yl)pyrimidine-2-amino], on CDK4/CyclinE1, the IC50 is 2.62 nM. Also, in data set [1] (CD-1 mice, intragastric 10 mg/kg, brain), the “Blood concentration Cmax, Brain” value amounted to 1270 ng/mL. In addition, in data set [1] (male, mouse, brain/plasma, po, CD-1 mice, intragastric 10 mg/kg, ratio, read-out: Cmax Brain/Plasma), the Kp was determined as 1.98. For the same compound, the values for the AUC(0-t) in data set [1] (setting [2]) and in data set [1] (setting [4]) were 16800 ng·h/mL and 7660 ng·h/mL, respectively. The Tmax in data set [1] (setting [3]) and in data set [1] (setting [6]) was 4 h in each case. In addition, the Cmax in data set [1] (setting [5]) came out at 639 ng/mL. For the same compound, in data set [1] (mice, relative to LY2835219), the “Blood brain distribution, in words” value is “better blood brain distribution; also recorded: good blood-brain distribution”.

Turning to `CCN1CCN(Cc2ccc(Nc3ncc(F)c(-c4cc(F)c5nc(C)n(C(C)C)c5c4)n3)nc2)CC1` [LY2835219, reference compound], the AUC(0-t) in data set [1] (setting [2]) was 1110 ng·h/mL; in data set [1] (setting [4]), 4250 ng·h/mL. In addition, the Tmax came to 6 h in data set [1] (setting [3]) and 1.5 h in data set [1] (setting [6]). Moreover, in data set [1] (setting [5]), the Cmax was 836 ng/mL.
